Test results published in article PMC8580319, “Dual activities of ACC synthase: Novel clues regarding the molecular evolution of ACS genes” (Science Advances, 2021).

What was measured:
MdACS1 = biological target: T1, MdACS1 (Malus domestica, UniProt P37821); assay: pyruvate formation, […],4-dinitrophenylhydrazine, A520; type: biochemical; conditions: Cβ-S lyase activity; 4 mM L-cystine, 100 μM PLP, 30°C
T1 construct: gene ACS-1; recombinant, His or GST tag, from E. coli
T1 sequence (P37821 1-473): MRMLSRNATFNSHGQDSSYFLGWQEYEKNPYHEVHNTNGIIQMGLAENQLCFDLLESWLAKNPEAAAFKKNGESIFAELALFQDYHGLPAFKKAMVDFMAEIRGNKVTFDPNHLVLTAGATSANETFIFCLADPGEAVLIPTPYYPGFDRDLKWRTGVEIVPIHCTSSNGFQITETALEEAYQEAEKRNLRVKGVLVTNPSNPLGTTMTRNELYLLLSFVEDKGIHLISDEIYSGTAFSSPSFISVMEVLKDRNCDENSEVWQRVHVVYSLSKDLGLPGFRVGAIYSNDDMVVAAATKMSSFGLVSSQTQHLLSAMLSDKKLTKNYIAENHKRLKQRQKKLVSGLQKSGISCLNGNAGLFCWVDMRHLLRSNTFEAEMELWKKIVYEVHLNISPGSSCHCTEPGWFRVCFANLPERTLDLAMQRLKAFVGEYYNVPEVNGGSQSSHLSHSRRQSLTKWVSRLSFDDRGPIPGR

AtACS6 = biological target: T2, AtACS6 (Arabidopsis thaliana, UniProt Q9SAR0); assay: as above; type: biochemical; conditions: Cβ-S lyase activity; 4 mM L-cystine, 100 μM PLP, 30°C
T2 construct: gene ACS6; recombinant, His or GST tag, from E. coli
T2 sequence (Q9SAR0 1-495): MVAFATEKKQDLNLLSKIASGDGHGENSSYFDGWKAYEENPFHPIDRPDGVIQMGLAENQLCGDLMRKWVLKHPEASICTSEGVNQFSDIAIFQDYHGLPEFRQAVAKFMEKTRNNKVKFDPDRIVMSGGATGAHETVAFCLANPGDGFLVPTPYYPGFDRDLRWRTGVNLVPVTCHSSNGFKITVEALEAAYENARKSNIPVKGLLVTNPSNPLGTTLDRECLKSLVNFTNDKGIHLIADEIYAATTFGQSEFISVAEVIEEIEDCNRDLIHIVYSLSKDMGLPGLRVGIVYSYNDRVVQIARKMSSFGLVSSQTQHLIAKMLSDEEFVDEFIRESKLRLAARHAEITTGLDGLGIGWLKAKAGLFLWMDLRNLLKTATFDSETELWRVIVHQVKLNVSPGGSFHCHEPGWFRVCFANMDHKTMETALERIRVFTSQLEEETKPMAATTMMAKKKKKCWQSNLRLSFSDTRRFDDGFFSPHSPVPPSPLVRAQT

## N[C@@H](CSSC[C@H](N)C(=O)O)C(=O)O [L-cystine]
MdACS1
  pyruvate formation, 2,4-dinitrophenylhydrazine, A520: MdACS1 indeed had both ACS and Cβ-S lyase activities in vitro
AtACS6
  pyruvate formation, 2,4-dinitrophenylhydrazine, A520: all of them had ACS and Cβ-S lyase dual enzymatic activities
